Experimental data: patent publication US9315448B2 (Cesa Alliance S.A., priority 2011, dated 2016)

Experiments:
Rotavirus = assay: Case study, piglets with confirmed Rotavirus infections; assay type: in vivo, Pig (piglet); settings: for Treated - Improvement / Treated Virus or symptom free: Pig (piglet), 2 days, wt.% per Table 2; for de-activation of the Rota virus confirmed / recovered completely / stopped having diarrhea: piglets
Description: All three piglets, which would normally experience 3 to 4 days of severe symptoms including diarrhea stopped having diarrhea on/after one day. The de-activation of the Rota virus infected was confirmed on/after the second day. The piglets recovered completely within 2 days.
Three piglets with confirmed Rotavirus infections were treated immediately with 50 mg of the compound of formula B, six times a day for 2 days. All 3 piglets, which would normally experience 4 to 5 days of severe symptoms including diarrhea stopped having diarrhea on/after the second day.
Both piglets, which would normally experience 3 to 4 days of severe symptoms including diarrhea stopped having diarrhea after one day.
(§1) All 3 piglets, which would normally experience 3 to 4 days of severe symptoms including diarrhea stopped having diarrhea after one day.
(§2) All 3 piglets, which would normally experience 3 to 4 days of severe symptoms including diarrhea stopped having diarrhea on/after one day.
as §2, §1

[1] = test system: Porcine reproductive and respiratory syndrome virus; assay: Case study, PRRS confirmed piglets; assay type: in vivo, Pig (piglet); settings: for Treated - Improvement / Treated Virus or symptom free: Pig (piglet), wt.% per Table 2; for confirmed PRRS free / recovered completely / showed signs of recovery: piglets
Canine Herpes virus = assay: Case study, Canine Herpes infected puppy; assay type: in vivo, Dog (puppy); settings: for Treated - Improvement / Treated Virus or symptom free: Dog (puppy), 300 mg, 3 times/day, 4 days, wt.% per Table 2
Parvovirus = assay: Case study, Parvo infected puppy; settings: for Treated - Improvement / Treated Virus or symptom free: Dog (puppy), 300 mg, 3 times/day, 4 days, wt.% per Table 2; for confirmed Parvo free / recovered completely / showed signs of recovery: puppy, 300 mg three times a day for 4 days
[2] = test system: DNA enveloped, DNA non-enveloped, RNA enveloped and RNA non-enveloped viruses; assay: In vivo case studies, overall conclusions across virus families; settings: no base oil
[3] = test system: herpes simplex virus type 1; assay: Case study, Herpes Labialis patient, topical treatment; assay type: in vivo, Human
[4] = test system: human papilloma virus 2 and 7; assay: Case study, skin warts of a patient
Description: Skin warts of patient were treated with 10 mg of the compound of formula B, three times a day for 3 days.
Skin warts of a patient were treated with 10 mg of the compound of formula B+C, three times a day for 3 days.
Skin warts of a patient were treated with 10 mg of the compound of formula A+B+C, three times a day for 3 days.

[5] = 500 mg three times a day for 2 days
[6] = 500 mg three times a day for 4 days
[7] = puppy, 300 mg three times a day for 4 days
[8] = 50 mg six times a day for 2 days
[9] = 50 mg six times a day for 3 days
[10] = Human (skin), 10 mg, 3 times/day, 1 day, wt.% per Table 2
[11] = patient, topical, 10 mg three times a day for 1 day, from onset of lesions
[12] = Human (skin), 10 mg, 3 times/day, 3 days, wt.% per Table 2

Structure (SMILES)	Treated - Improvement (Rotavirus; 500 mg, 3 times/day) [days]	Treated Virus or symptom free (Rotavirus; 500 mg, 3 times/day)	de-activation of the Rota virus confirmed (Rotavirus; [5])	recovered completely (Rotavirus; [5]) [days]	stopped having diarrhea (Rotavirus; [5])	Treated - Improvement ([1]; 500 mg, 3 times/day, 4 days) [days]	Treated Virus or symptom free ([1]; 500 mg, 3 times/day, 4 days)	confirmed PRRS free [1, 6]	recovered completely [1, 6] [days]	showed signs of recovery [1, 6]	Treated - Improvement (Canine Herpes virus) [days]	Treated Virus or symptom free (Canine Herpes virus)	confirmed Herpes free (Canine Herpes virus; [7])	recovered completely (Canine Herpes virus; [7]) [days]	Treated - Improvement (Parvovirus) [days]	Treated Virus or symptom free (Parvovirus)	confirmed Parvo free (Parvovirus)	recovered completely (Parvovirus) [days]	showed signs of recovery (Parvovirus)	results with 100 wt. % of compound compared with Tables 1 and 2 [2]	further results
C=C=C(C)c1cc(O)c(O)c(C(=O)C[C@](C)(O)C=C)c1 [Formula A]	1	Day 2	second	≤ 2	one	1	Day 2	2 day of treatment	4	one	2	Day 4	4 day of treatment	10	1	Day 4	4 day of treatment	6	first	same results	showed signs of recovery (Canine Herpes virus; [7]): second
C=C=C(C)c1cc(O)c(O)c(C(=O)C(C)C(C)(C)O)c1 (stereo not shown) [Formula B, 2,3(dihydroxy), 5[3(1,2)butadiene], 2[2-methylbutane]benzenal]																				same results	Treated - Improvement (Rotavirus; 50 mg, 6 times/day): 2 days; Treated Virus or symptom free (Rotavirus; 50 mg, 6 times/day): Day 3; de-activation of the Rota virus confirmed (Rotavirus; [8]): second; recovered completely (Rotavirus; [8]): ≤ 3 days; stopped having diarrhea (Rotavirus; [8]): second; Treated - Improvement ([1]; 50 mg, 6 times/day, 3 days): 2 days; Treated Virus or symptom free ([1]; 50 mg, 6 times/day, 3 days): Day 3; confirmed PRRS free [1, 9]: 3 day of treatment; recovered completely [1, 9]: 4 days; showed signs of recovery [1, 9]: second; Treated - Improvement [3, 10]: 3 days; Treated Virus or symptom free [3, 10]: Day 4; course of the infection [3, 11]: did not get worse; lesions started to disappear [3, 11]: second; no more signs of infection [3, 11]: 4 days; Treated - Improvement [4, 12]: 7 days; Treated Virus or symptom free [4, 12]: 21 days; skin tissue disappeared completely ([4]; patient, 10 mg three times a day for 3 days): 3 weeks; warts started to soften and becoming white ([4]; patient, 10 mg three times a day for 3 days, time printed in words): a week
C=C=C(C)c1cc(O)c(O)c(C(=O)O[C@](C)(O)C=C)c1 [Formula C, 2,3(dihydroxy), 5[3(1,2)butadiene], 2hydroxy,3butene benzoate]	1	Day 2	first	≤ 2	one	1	Day 2	2 day of treatment	4	one	2	Day 4	4 day of treatment	7	1	Day 4	4 day of treatment	6	first	same results	
